The conditions of data set [1]: cited from earlier work.
Data set [2] can be described thus: Skin permeation of ibuprofen through porcine skin, Franz diffusion cells (finite dosing). Type of data set: in vitro ADME. The settings on record: bar graphs FIG. 1-13. As to the method:
“Enhancement ratio” (“ER”) as used herein is the ratio of a test result (e.g., ug/cm^2 accumulated dose of product) from a formulation comprising ibuprofen to the corresponding test result from a control composition comprising ibuprofen at the same concentration in the formulation.
“Ratio”, as it pertains to comparative flux values described herein, are calculated based on the cumulative amount of active (e.g. ibuprofen) delivered through the skin over a period of 4-60 hrs, preferably 24 hrs.
The permeation of ibuprofen through porcine skin from each of the present formulations was measured using Franz diffusion cells (“FDC”s). Porcine skin pieces are obtained from Lampire Biological Laboratories, Inc., Pipersville, Pa. Porcine skins were collected immediately following animal sacrifice, and the hairs were trimmed with clippers. Larger pieces of excess fat were removed with a filet knife. The skin was then trimmed to a set thickness of some 2 mm, cut into individual pieces, wrapped in aluminum foil, frozen, shipped, and stored at −78° C.
Prior to use, the skin pieces were allowed to thaw, in air, to room temperature. […]
Samples were drawn from the receptor wells at various times, as provided in the examples that follow. […] The concentrations of ibuprofen in the samples were measured using HPLC analysis using a C18 column and acetonitrile and water as the mobile phase. […]

The next data set is described as follows: pH of the formulation. The settings on record: Table 20; single ingredient in water at its Ib949 wt %. The class given is physicochemical.

Structures can show the parent of a compound that is named as a salt. Where only a bound is given, the exact number is not on record here.

With `CC(C)Cc1ccc(C(C)C(=O)O)cc1` (racemic) [Ibuprofen, 2-(4-isobutylphenyl)propanoic acid], the “Solubility in polar organic solvents” value in data set [1] (ethanol and acetone) was “readily soluble”. Also, in data set [1] (water), the Solubility in water was less than 100 µg/mL.

As for `CC(C)Cc1ccc([C@H](C)C(=O)O)cc1` [(S) form, (S+)-ibuprofen], the “Flux / permeation of ibuprofen, result in words” value in data set [2] is “no significant difference in flux”. In “pH of the formulation”, `CCO` [Ethanol] returned a pH-water and ingredients of 7.31. `CC(O)C(=O)O` (centres unmarked) [Lactic Acid]: in “pH of the formulation”, the pH-water and ingredients turned out to be 2.4. For the compound `COC(=O)c1ccc(O)cc1` [MP], in the data set “pH of the formulation”, the pH-water and ingredients was determined as 5.72. Same read-out and setting: next, `CCCCCCCCCCCCOS(=O)(=O)[O-].[Na+]` [Na Lauryl Sulfate]: 7.97; `CC(O)CO` (centres unmarked) [PG]: 6.97; `CCCOC(=O)c1ccc(O)cc1` [PP]: 6.13.

`CCOCCOCCO` [Transcutol] showed a pH-water and ingredients in the data set “pH of the formulation” of 4.32.

`CCOC(=O)CC(O)(CC(=O)OCC)C(=O)OCC` [Triethyl Citrate] registered a pH-water and ingredients in the data set “pH of the formulation” of 3.72.

(Values after US8470886B2, “Topical ibuprofen formulations” (NUVO Research Inc., priority 2009, dated 2013).)
